Source: patent US20230414628A1, “METHODS FOR TREATING DISEASES MEDIATED BY GLUTATHIONE PEROXIDASE 4” (priority 2022, published 2023)

Each molecule was assayed on RAG02 (derived from fibroblasts of the patient's parent) (assay: CellTiter-Glo assay in RAG02 control cell line). Details: 1 μM control, 72 hours.
Assay type: cell-based, human
Experimental: (§1) Compounds described herein were tested in three cell lines, RAG01 (derived from fibroblasts of a patient diagnosed with SSMD) fibroblasts, RAG02 (derived from fibroblasts of the patient's parent), and GM09503 (from supplier Corriell) (derived from a healthy donor) to each generate 10-point concentration response curves (CRC). The three cell lines were each thawed seven (7) days prior to seeding. The RAG01 cells were thawed in a medium supplemented with a-tocopherol. Cells were passaged four (4) days prior to the seeding. The α-tocopherol was removed from the RAG01 cells. Cells were then seeded at 900 cells per well in 384-well plates. Two replicates were prepared for two independent (replicate) experiments. All plates were then incubated with compounds described herein for 72 hours, prior to CellTiter-Glo assay. The compounds were tested in 10-point concentration (CRCs) from 10 μM using 3.16×(half Log) dilutions. The assay was run using the CellTiter-Glo (Promega) following manufacturer's guidelines and luminescent spectrophotometric reading on PHERAstar FSX (BMG Labtech). […]
(§2) The raw data was analyzed using Activity Base® software. The compounds were evaluated by efficacy (percentage effect) normalized to the vehicle control. The percentage effect (PE) was determined from the signal increase in comparison to the vehicle control according to the formula below: […]
In the case of `CCOC(=O)c1ccc(NC2CCCCC2)c(N)c1` [Ferrostain-1, Ferrostatin-1], the “effect of control compound on RAG02 cells” value is reported as “No effect”.

The molecules below were run on GM09503 (derived from a healthy donor) (assay: CellTiter-Glo assay in GM09503 control cell line). Details: 1 μM control, 72 hours.
Assay type: cell-based, human
Experimental: as §1, §2
`CCOC(=O)c1ccc(NC2CCCCC2)c(N)c1` [Ferrostain-1, Ferrostatin-1] was tested, and the “effect of control compound on GM09503 cells” value was “No effect”.

The molecules below were run on RAG01 (derived from fibroblasts of a patient diagnosed with SSMD) fibroblasts (assay: CellTiter-Glo concentration response in RAG01 fibroblasts). Details: Homo sapiens, Fibroblast, 72 h.
Assay type: cell-based, human
Experimental: Compounds described herein were tested in three cell lines, RAG01 (derived from fibroblasts of a patient diagnosed with SSMD) fibroblasts, RAG02 (derived from fibroblasts of the patient's parent), and GM09503 (from supplier Corriell) (derived from a healthy donor) to each generate 10-point concentration response curves (CRC). The three cell lines were each thawed seven (7) days prior to seeding. The RAG01 cells were thawed in a medium supplemented with a-tocopherol. Cells were passaged four (4) days prior to the seeding. The α-tocopherol was removed from the RAG01 cells. Cells were then seeded at 900 cells per well in 384-well plates. Two replicates were prepared for two independent (replicate) experiments. All plates were then incubated with compounds described herein for 72 hours, prior to CellTiter-Glo assay. […] The assay was run using the CellTiter-Glo (Promega) following manufacturer's guidelines and luminescent spectrophotometric reading on PHERAstar FSX (BMG Labtech). A 0.1% dimethylsulfoxide (DMSO) was used as a blank (vehicle control); and a 1 μM Ferrostatin-1 was used as a control (CTRL).
as §2
The percentage effect values were then plotted against log concentration of the drug to generate a concentration response curve. The curves were fitted using a four-parameter fit, and curve tops and hillslopes were fixed where required and justified.
In the case of `COC(=O)c1cc2c(C(F)(F)F)cc(-c3ccccc3)cc2n1O` [compound 100, NHI-2], the EC50 is reported as 1310 nM.

Same assay, conditions: Homo sapiens, Fibroblast; RAG01 cell line; 72 hours incubation; CellTiter-Glo; percentage effect normalized to vehicle control; 10-point CRC from 10 μM; read-out: EC50
Work on `CCN1CCC(n2cc(CNc3cc(Cl)c4ncc(C#N)c(Nc5ccc(F)c(Cl)c5)c4c3)nn2)CC1` [compound 72, Cot inhibitor-2] yielded an EC50 of 77 nM. `O=C1NC(=O)c2cc(Nc3ccc(F)cc3)c(Nc3ccc(F)cc3)cc21` [compound 73, CGP 53353] gave an EC50 of 168 nM. `COc1ccc2c(c1)c(C1=C(c3c[nH]c4ccccc34)C(=O)NC1=O)cn2CCCN(C)C` [compound 74, Go 6983] gave an EC50 of 764 nM. `CN1CCN(Cc2ccc(-c3cnc4[nH]cc(-c5ccc6[nH]ccc6c5)c4c3)cc2)CC1` [compound 75, URMC-099] gave an EC50 of 377 nM. Molecule `COc1cc(N2CCC(N3CCN(C)CC3)CC2)ccc1Nc1ncc(Cl)c(Nc2ccccc2S(=O)(=O)C(C)C)n1` [compound 76, NVP-TAE684] has an EC50 of 480 nM. In the case of `CNC(=O)c1ccccc1Nc1cc(Nc2ccc(N3CCOCC3)cc2OC)ncc1C(F)(F)F` [compound 77, PND-1186 (VS-4718)], the EC50 is reported as 611 nM. Work on `O=C1Nc2cc(Br)ccc2/C1=C1/Nc2ccccc2/C1=N\O` [compound 79, GSK-3-inhibitor-IX] yielded an EC50 of 559 nM. In the case of `CCOc1cc(N2CCC(O)CC2)ccc1Nc1ncc2c(n1)N(C1CCCC1)CCC(=O)N2C` [compound 80, Mps1-IN-1], the EC50 is reported as 452 nM. In the case of `Cc1cc(N2CCOCC2)ccc1Nc1nc(NC2CCCCC2)c2nc[nH]c2n1` [compound 81, MPI-0479605], the EC50 is reported as 688 nM. `Cc1ccc(NC(=O)c2ccc(CN3CCN(C)CC3)cc2)cc1Nc1nc(-c2cccnc2)cs1` [compound 82, Masitinib (AB1010)] was tested, and the EC50 was 916 nM. With `Cc1ccccc1C(=O)c1ccc(Nc2ccc(Br)cc2N)cc1Cl` [compound 83, EO-1428] the EC50 was 1040 nM. `NC(=O)c1nc(Nc2ccccc2)sc1NC(=O)C1CCCCC1` [compound 85, UNC-3230] was tested, and the EC50 was 1240 nM. In the case of `CC1(C)CNc2cc(NC(=O)c3cccnc3NCc3ccncc3)ccc21` [compound 86, Motesanib], the EC50 is reported as 1460 nM. Work on `Cc1ccc(F)c(NC(=O)Nc2ccc(-c3cccc4[nH]nc(N)c34)cc2)c1` [compound 87, Linifanib] yielded an EC50 of 1650 nM. For `Cc1c(NC(=O)OC[C@@H]2COCCN2)cn2ncnc(Nc3ccc4c(cnn4Cc4cccc(F)c4)c3)c12` [compound 88, BMS-599626], the EC50 was 2300 nM. `CC(C)(C)C(=O)/C(=N/c1ccc(Cl)cc1)NNc1ccc(Cl)cc1` [compound 90, TY 52156] gave an EC50 of 117 nM. In the case of `O=C1c2cccnc2C(=O)C(NCCN2CCOCC2)C1Cl` (centres unmarked) [compound 91, NSC 663284], the EC50 is reported as 268 nM. `COc1ccc2nc3cc(Cl)ccc3c(Nc3cc(CN4CCCC4)c(O)c(CN4CCCC4)c3)c2n1` [compound 92, pyronaridine] gave an EC50 of 416 nM. Molecule `COC(=O)c1sccc1S(=O)(=O)Nc1ccc(Nc2ccccc2)cc1OC` [compound 93, GSK-0660] has an EC50 of 438 nM. Molecule `OC(CNc1ccccc1)Cn1c2ccc(Br)cc2c2cc(Br)ccc21` (centres unmarked) [compound 94, P7C3] has an EC50 of 652 nM. `Cc1cccc(Nc2nc(-c3ccncc3)cs2)c1` [compound 95, STF-62247] showed an EC50 of 739 nM. Work on `COc1ccc(-c2nc(-c3ccc(-c4cccc(Cl)c4)o3)[nH]c2-c2ccc(OC)cc2)cc1` [compound 96, neurodazine] yielded an EC50 of 956 nM. For `c1ccc2c(Oc3nc(Nc4ccc(N5CCOCC5)cc4)c4ncn(C5CCCCC5)c4n3)cccc2c1` [compound 97, Purmorphamine], the EC50 was 1100 nM. `C[C@@H]1CC(=O)c2c(ccc3c2C(=O)c2cccc(O)c2C3=O)C1` [compound 98, ochromycinone] was tested, and the EC50 was 1150 nM. Work on `O=C1C=Cc2cc(Br)ccc2C1=O` [compound 99, bonaphthone] yielded an EC50 of 1260 nM. Molecule `Cc1[nH]c(/C=C2\C(=O)Nc3cc(-c4ccccc4)ccc32)c(C)c1CCC(=O)O` [compound 101, su-16f] has an EC50 of 1380 nM. Work on `N#Cc1ccc(-c2csc(NN=C3CCCC3)n2)cc1` [compound 103, remodelin] yielded an EC50 of 1560 nM. With `COC(=O)/C=C/c1cccc(N(Cc2ccc(-c3ccc(N(C)C)cc3)cc2)C(=O)C2CCCCC2)c1` [compound 104, Fexaramine] the EC50 was 1720 nM. In the case of `CC(C)(C)c1cc(C(C)(C)C)c(NC(=O)c2c[nH]c3ccccc3c2=O)cc1O` [compound 105, ivacaftor], the EC50 is reported as 1840 nM. For `Cc1nn(C)c2nc(NNC(=O)Nc3cc(Cl)nc(Cl)c3)cc(C(C)C)c12` [compound 106, JTE-013], the EC50 was 2470 nM. Molecule `COc1cc(OC)cc(C(=O)NNC(=O)Nc2cccc3ccccc23)c1` [compound 107, TC-O-9311] has an EC50 of 3550 nM. Molecule `Cn1cc(/C=C/C(=O)c2cccc(F)c2)cc1/C=C/C(=O)NO` [compound 108, MC1568] has an EC50 of 3770 nM. Molecule `COc1ccc2c3c([nH]c2c1)[C@H](CC(C)C)N1C(=O)[C@H](CCC(=O)OC(C)(C)C)NC(=O)[C@@H]1C3` [compound 109, Ko 143] has an EC50 of 3940 nM. Work on `CCC[C@H](N[C@H]1CCc2cc(F)cc(F)c2C1)C(=O)Nc1cn(C(C)(C)CNCC(C)(C)C)cn1` [compound 110, Nirogacestat] yielded an EC50 of 5560 nM.

Same assay, conditions: RAG01 cell line; 72 hours incubation; CellTiter-Glo; percentage effect normalized to vehicle control; 10-point CRC from 10 μM; read-out: EC50
For `CCCCCCCCCCC(O)C1C=CC2C(=O)N(c3ccccc3)C(=O)C2N1Nc1ccc([N+](=O)[O-])cc1` (centres unmarked) [compound 89, A12B4C3], the EC50 was 2670 nM. butylated hydroxyanisole [compound 11] showed an EC50 of 1180 nM. licochalcone [compound 21] was tested, and the EC50 was 1070 nM. Molecule piperacetazine [compound 45] has an EC50 of 1580 nM.
